Results taken from a compilation of properties of binary mixtures (doi:10.1016/j.fluid.2020.112621).

Test: xn = mol fraction of the nth substance listed
Conditions: 101 kPa

CCCCCC(=O)O.CCCCCC(=O)[O-].CC[NH+](CC)CCO + CCCC[n+]1ccn(C)c1.COP(=O)([O-])OC
viscosity [mPa·s]
Conditions | x1 = 0.0684 | x1 = 0.1429 | x1 = 0.2213 | x1 = 0.3088 | x1 = 0.3966 | x1 = 0.4995 | x1 = 0.6088 | x1 = 0.7258 | x1 = 0.8535 | x1 = 1
278.15 K | 2021 | 1198.1 | – | 529 | 412 | 343 | – | 255.9 | 217.2 | 179
283.15 K | – | 787 | 520 | 365 | 288.7 | – | 211.6 | – | 159 | 132.6
288.15 K | 841 | 535 | – | – | 207.7 | 176.1 | 155.1 | 137.2 | 118.9 | –
293.15 K | 570 | 374 | 259.3 | 189.1 | 152.9 | – | 116 | 103.5 | – | 76.9
298.15 K | 398 | 268.2 | – | – | 114.9 | 98.9 | 88.5 | 79.5 | 70.1 | 60
303.15 K | 285.4 | 197.1 | – | 107 | 88.1 | 76.3 | – | 62.1 | 55.1 | –
308.15 K | 209.4 | – | 108.8 | 82.8 | 68.7 | 59.9 | 54.11 | 49.21 | 43.94 | 38.14
313.15 K | – | 113.2 | 84.6 | – | 54.51 | 47.69 | 43.28 | 39.55 | 35.51 | 31
318.15 K | 120 | 88.2 | 66.9 | 52.14 | – | 38.54 | 35.09 | 32.2 | – | 25.48
323.15 K | 93.3 | 69.8 | 53.69 | 42.29 | – | 31.55 | 28.81 | 26.52 | 24.02 | 21.16
328.15 K | 73.8 | 56.08 | 43.7 | 34.74 | 29.57 | – | 23.92 | 22.08 | 20.07 | –
333.15 K | 59.25 | 45.69 | 36.01 | 28.88 | 24.7 | 21.89 | 20.08 | 18.56 | 16.93 | 15.02
338.15 K | – | 37.68 | – | 24.28 | 20.85 | 18.53 | 17.01 | 15.76 | 14.4 | –
343.15 K | – | 31.44 | – | – | 17.77 | 15.82 | 14.54 | 13.48 | 12.35 | 11.01
348.15 K | 33.12 | 26.52 | 21.54 | 17.66 | 15.28 | 13.63 | 12.53 | 11.63 | 10.67 | –
353.15 K | 27.9 | 22.58 | – | 15.27 | 13.25 | – | 10.89 | – | 9.27 | –
358.15 K | 23.74 | 19.41 | – | 13.3 | 11.58 | 10.34 | 9.52 | 8.84 | 8.11 | –
363.15 K | 20.39 | 16.82 | 13.98 | 11.67 | 10.19 | 9.1 | 8.38 | 7.77 | 7.13 | 6.36
368.15 K | 17.66 | 14.68 | 12.3 | 10.31 | – | 8.06 | 7.42 | 6.87 | 6.3 | 5.61
373.15 K | 15.41 | 12.91 | – | 9.17 | 8.04 | 7.18 | 6.6 | 6.11 | 5.59 | 4.96
